Test results reported in patent US11325937B2, “Glycoside compound and preparation method therefor, composition, application, and intermediate” (SHANGHAI HUTCHISON PHARMACEUTICALS LIMITED, priority 2018, dated 2022).

What was measured:
[1] = system: VEGF-A mRNA expression in macrophages (RAW264.7); assay: In vitro macrophage experiment: activity of compounds to promote VEGF-A mRNA expression (RT-qPCR); format: cell-based; conditions: Mus musculus, RAW264.7 macrophages, 3 h, relative expression, no drug = 1, read-out: Expression level of VEGF-A mRNA; for fold induction at 500 µM: 0.5 mM; for fold induction at 1000 µM: 1 mM; for fold induction at 2000 µM: 2 mM; for fold induction at 3000 µM: 3 mM; for fold induction at 4000 µM: 4 mM
How it was run: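 RAW264.7 macrophages were exposed to test compounds at various concentrations for 3 h at 37° C. VEGF-A mRNA was measured by SYBR Green RT-qPCR, normalized to β-Actin, and expressed as 2^−ΔΔCt relative to untreated cells (=1). Activity is the maximal fold induction, with ≥4 as hit criterion.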

VEGF-A mRNA = assay: Sponge implanted animal model of inflammatory angiogenesis: VEGF-A mRNA expression; format: in vivo, male C57/BL6 mice; conditions: for activity in promoting VEGF-A mRNA expression compared with Salvianolate (in words): positive control Salvianolate 60 mg/kg/d, sponge implanted mice
Text: The target pro-angiogenic compounds TG-052, TG-053, TG-054, TG-028, and TG-055 obtained in Effect Example 1 that perform well at the cellular level were further screened for the active molecules that promote VEGF-A mRNA expression in the “sponge implanted animal model” of inflammatory angiogenesis. […] This model can well reflect the expression of VEGF-A mRNA in macrophages recruited around inflammation.
A sponge implanted mouse model was established following the method as described in Zhang J, Modi Y, and Yarovinsky T, et al. Macrophage β2 integrin-mediated, HuR-dependent stabilization of angiogenic factor-encoding mRNAs in inflammatory angiogenesis. [J]. American Journal of Pathology, 2012. 180(4): 1751-1760. The mice used in the present invention was male C57/BL6 mice aged 6-8 weeks and weighing 20-25 g, purchased from Shanghai SLAC Laboratory Animal Co., Ltd, Production License No: SCXK (Shanghai) 2013-0016. The compound screened in Effect Example 1 was weighed according to the amount intended to be used in two weeks, and then mixed with a gel matrix and a solvent to prepare a sustained-release gel of the compound (see Patent Application No.: CN201610168493.9 for the details of the preparation method of the sustained-release gel and the model establishment and detection methods). The specific steps were as follows. A certain amount of the compound obtained in Effect Example 1 was weighed into a 1.5 mL EP tube, and then a certain amount of poly-L-lactic acid (PLLA) with a weight average molecular weight of less than 10,000 was weighed and mixed with the compound (at a weight ratio of the compound to PLLA of 0.5:1 to 2:1). Finally a certain amount of DMSO (less than 100 microliters) was added, spun, mixed well, and then sealed with a sealing film. After continuous ultrasonication at 200 W and 25° C. for 5 h, a sustained-release gel of the compound was obtained, which was stored at 4° C. for later use.
The prepared sustained-release gel can release the drug completely within 2 weeks. The sustained-release gel and sponge were both subcutaneously implanted in the mice at the back. After 2 weeks, the sponge was taken out, and the residual tissue and fur were removed. The sponge was transferred to a cell culture plate containing 10 mL of DMEM medium containing collagenase (Collagenase:DMEM=10 mg/10 mL), cut, and incubated for 1 h in a cell incubator. Then the culture medium containing sponge debris was filtered, and the resulting filtrate was centrifuged. The supernatant was discarded, and 500 μL of Trizol reagent was added to the pellet, and mixed uniformly by blowing. Then the liquid was transferred to a 1.5 mL EP tube, and stored at −80° C. RNA was extracted according to a conventional method, and the RNA concentration was determined using a microvolume nucleic acid and protein analyzer (Nanodrop2000c). The required volume V of RNA was calculated according to the RNA concentration, and the RNA reverse transcription reaction system was prepared according to Table 1. Then RNA reverse transcription (cDNA synthesis) was carried out according to the conditions described in Table 2. The resulting cDNA was used to prepare a fluorescence quantitative qPCR reaction solution according to Table 3. The fluorescence quantitative qPCR reaction conditions were set according to Table 4, and the fluorescence quantitative PCR reaction was performed using cDNA from the reverse transcription reaction as a template. The relative expression level 2^−ΔΔCt of the target gene was calculated from the Ct value of each sample with the blank group as a control and β-Actin as an internal reference. The expression level of VEGF-A mRNA in the cells extracted from the sponge was observed after 2 weeks. […]

[2] = system: rats with middle cerebral artery occlusion (MCAO); assay: Acute cerebral infarction model in rats with middle cerebral artery occlusion (MCAO); format: in vivo, male SD rats; conditions: Rattus norvegicus, ip, 72 h, MCAO, intraperitoneal injection, TTC staining after 3 days, read-out: ED50 for infarction inhibition rate (%)
Text: (§1) After obtaining the active molecules that can promote the expression of VEGF-A mRNA in the animal model of inflammatory angiogenesis, a rat model of cerebral infarction was used for further verification. Following the method as described in Longa, E. Z., Longa, E. Z., Weinstein, P. R., Carlson, S. & Commin, R. Reversible middle cerebral artery occlusion without craniectomy in rats. [J]. Stroke, 1989. 1: 84-91, an acute cerebral infarction model was established in rats with middle cerebral artery occlusion (MCAO); and following the method as described in C. dela Torre, T. Fortin, G. A. S. Park, K. S. Butler, P. Kozlowski, B. A. Pappas, H. de Socarraz, J. K. Saunders and M. T. Richard. [J]. Brain Research, 1992. 582:186-195, a chronic cerebral ischemia model was established in rats with permanent ligation of bilateral common carotid arteries (2VO). The inhibition on cerebral infarction and neuroprotection for brain injury of the active molecules screened in Effect Example 2 were verified.
The control drugs were: Edaravone (purchased from Zhejiang Shengtong Biotechnology Co., Ltd.), Clopidogrel bisulfate (purchased from Wuhan Yuancheng Gongchuang Technology Co., Ltd.), and Salvianolate (purchased from Henan Provincial People's Hospital). Clopidogrel bisulfate is a platelet aggregation inhibitor, and Edaravone is a brain protectant (free radical scavenger). The MCAO model of rats was made by the thread occlusion method. The rats used in this effect example were male SD rats weighing 280-320 grams, purchased from Shanghai SLAC Laboratory Animal Co., Ltd. Five SD (Sprague Dawley) rats in each group were administered by intraperitoneal injection, 2 h before surgery, and every 24 h after modeling.
Three days later, the brain was taken, and the rat brain was stained with TTC (2,3,5-triphenyltetrazolium chloride, to detect the cell viability) and then photographed. Infarction rate (%)=(Non-infarction area of right brain section−non-infarction area of left brain section)/total area of brain section*100%. According to t tests, *P<0.05, **P<0.01, ***P<0.001 compared with the model group (MCAO). Infarction inhibition rate (%) at different doses=(infarction rate of model group-infarction rate of treatment group)/infarction rate of model group*100%. The infarction inhibition rate at different doses was plotted, and the ED50 of the drug was calculated.
Moreover, the body weight of the rats was recorded. The rate of body weight change was calculated according to a formula: Rate of body weight change (%)=(final weight-initial weight)/[…].
Three days after the acute cerebral infarction model was established in rats with MCAO, the test rats were scored for neurological function according to the Longa nerve scoring standard.
Three days after the acute cerebral infarction model of MCAO was established in rats, the intact brain tissue was taken out, olfactory bulb and the brain tissue that is 4 mm in front of the frontal pole was removed, and the immediately adjacent brain tissue of 2 mm thick was taken for water content measurement in the brain. The water content in brain tissue is calculated by the formula: (WW−DW)/WW×100%, where WW is the wet weight and DW is the dry weight. Three days after the acute cerebral infarction model of MCAO was established in rats, the brain tissue was stained with Evans Blue (EB, a commonly used azo dye preparation) to evaluate the permeability across the blood-brain barrier (BBB), so as to evaluate the integrity of blood-brain barrier. Both experiments were tested with the optimal dose of each drug previously determined: TG-028 (5 mg/Kg), Salvianolate (20 mg/Kg), Clopidogrel bisulfate (40 mg/Kg), Edaravone (40 mg/Kg).

[3] = system: rats with permanent ligation of bilateral common carotid arteries (2VO); assay: Chronic cerebral ischemia model in rats with permanent ligation of bilateral common carotid arteries (2VO); format: in vivo
Text: as §1
In the later period of the present invention, a chronic cerebral ischemia model was established in rats with permanent ligation of bilateral common carotid arteries (2VO). TG-028 (5 mg/kg) was administered to 5 rats in each group daily by intraperitoneal injection for 3 weeks. The effects of TG-028 and the control drug Edaravone (40 mg/kg) in the rat model of chronic cerebral ischemia were observed.
3 weeks after the establishment of the rat model of 2VO chronic cerebral ischemia, the Morris water maze experiment was performed on the test rats to determine the effects of drugs on animal learning and memory. The test rats were subjected to ambient positioning and memory training for 5 days. On Day 5 of the training, a positioning navigation experiment was carried out, and the duration for each group of rats from the time of entering the water from different water entry points facing the pool wall to the time of finding the platform, that is, the escape incubation period, was recorded. On Day 6, the platform was removed and a space exploration experiment was carried out. The swimming time of the rats in the target quadrant, the dwell time in the target quadrant, the distance in the target quadrant, and the number of passes through the platform were recorded in 120 s from the time of entering water from a quadrant opposing the target quadrant. The results of the water maze positioning and navigation experiment are shown in FIG. 8 (where Sham is a sham operation group).
After permanent ligation of the bilateral common carotid arteries, a 5-day positioning training was carried out, and […] Morris water maze space exploration experiment was performed after the training.

| Structure (SMILES) | fold induction at 500 µM [1] | fold induction at 1000 µM [1] | fold induction at 2000 µM [1] | fold induction at 3000 µM [1] | fold induction at 4000 µM [1] | increase of expression level of VEGF-A mRNA compared with blank control without drugs (VEGF-A mRNA; 41.37 mg/kg/d, sustained-release gel, 2 weeks, mice) | activity in promoting VEGF-A mRNA expression compared with Salvianolate (in words) (VEGF-A mRNA; 2 weeks) | fold induction at 100 µM ([1]; 0.1 mM) | expression of VEGF-A mRNA (in words) (VEGF-A mRNA; various doses, alone, FIG. 19) | ED50 [2] | HE staining and Nissl staining of brain sections, hippocampal CA3 neurons (in words) ([3]; 3 weeks after chronic cerebral ischemia, compared with 2VO+NaCl, FIG. 10) | Morris water maze positioning and navigation: escape incubation period and total distance (in words) ([3]; TG-028 5 mg/kg, Edaravone 40 mg/kg, 3 weeks of administration, FIG. 8) | Morris water maze space exploration: number of passes through the platform compared with 2VO+NaCl group ([3]; TG-028 5 mg/kg, Edaravone 40 mg/kg, 3 weeks, FIG. 9) | change in body weight compared with sham operation group (in words) ([3]; TG-028 5 mg/kg, Edaravone 40 mg/kg, i.p. daily, after 1 week, FIG. 7) |
| --- | --- | --- | --- | --- | --- | --- | --- | --- | --- | --- | --- | --- | --- | --- |
| COc1ccc(CO[C@@H]2O[C@H](CO)[C@@H](O)[C@H](O)[C@H]2O)cc1 [TG-052] | 19.7 | 0.93 | 2.64 | 2.69 | 3.51 | about 3 times | comparable to that of Salvianolate |  |  |  |  |  |  |  |
| COc1ccc(CCCO[C@@H]2O[C@H](CO)[C@@H](O)[C@H](O)[C@H]2O)cc1 [TG-054] | 3.63 | 12.4 | 6.5 | 1.21 | 2.01 |  | slightly lower activity in promoting the VEGF-A mRNA expression |  |  |  |  |  |  |  |
| OC[C@H]1O[C@@H](OCCc2ccc(O)cc2)[C@H](O)[C@@H](O)[C@@H]1O [TG-056, salidroside, reference compound] | 1.74 | 2.24 | 6.7 | 2.31 |  |  |  | 0.72 | very low expression of VEGF-A mRNA |  |  |  |  |  |
| CC1=NN(c2ccccc2)C(=O)C1 [Edaravone, reference compound] |  |  |  |  |  |  |  |  |  | 25.7 mg/kg | cell morphology in the 2VO+Edaravone group is also improved | different from those of the 2VO+NaCl group | no significant difference | no significant weight increase compared with the sham operation group |
